{
  "source": "paper PMC9220178",
  "about": "“Preclinical Characterization of Antioxidant Quinolyl Nitrone QN23 as a New Candidate for the Treatment of Ischemic Stroke” (Antioxidants, 2022)",
  "key": {"[1]": {"system": "adult male Wistar rats, four-vessel occlusion (4VO) transient forebrain ischemia", "experiment": "Long-term behavioral tests in the Y maze", "assay_type": "in vivo, rat", "conditions": "2.0 mg/kg i.v. at reperfusion onset, 11 weeks after ischemia", "procedure": "Long-term assessment of neurological damage after the ischemic episode was performed by the evaluation of the spontaneous exploratory activity (spatial recognition) and spatial memory skills in the Y maze.\nFor the assessment of the exploratory activity and spatial recognition, control animals and ischemic animals treated with vehicle, QN23, or NXY-059 were placed in the center of the maze and allowed free exploration for 8 min. An independent researcher blind to the treatment allocation registered the total number of arms that the animal entered indistinctly (arm entries), and the times that the animal explored the three different arms of the maze consecutively (alternations or triads).\nFor the assessment of spatial memory, experiments consisted of two trials. For the first trial (training), control and ischemic animals treated with vehicle or QN23 were placed into one of the arms (start arm) and allowed to explore the Y maze for 10 min with one of the arms closed. One hour after the training trial, the animals were returned to the Y maze and the second trial was conducted. The animals were placed in the same start arm as in the training trial, but now with the remaining two arms of the maze available for exploration for 3 min. A researcher blind to the treatment allocation registered the first choice of arm for entry (novel or old)."}, "[2]": {"system": "primary neuronal cultures subjected to OGD", "parameters": "method as in PMID 30715875", "conditions": "cited from earlier work"}, "[3]": {"system": "adult male Wistar rats, four-vessel occlusion (4VO) transient forebrain ischemia", "experiment": "Neuronal death by Fluoro-Jade B staining after transient global cerebral ischemia (4VO)", "assay_type": "in vivo, rat", "conditions": "for Neuroprotection (neuronal death, Fluoro-Jade B): vehicle = 0%", "procedure": "Transient forebrain ischemia was induced in adult male Wistar rats (10–12 weeks, Charles River, L’Arbresle, France) by the standard four-vessel occlusion (4VO) model previously described. Briefly, animals were anesthetized by intraperitoneal injection of a combination of ketamine, diazepam, and atropine (62.5, 5.0, and 0.25 mg/kg, respectively); positioned in a stereotactic device; and both vertebral arteries were cauterized. The next day, anesthesia was induced with 4% isoflurane and maintained at 2–2.5% isoflurane for carotid artery dissection. After anesthesia withdrawal, the carotid arteries were occluded with an atraumatic vascular clamp to induce brain ischemia. During the entire surgical procedure, temperature was monitored at 2 min intervals and kept at 37 °C. After 15 min of ischemia, the carotid arteries were unclamped for brain reperfusion. The animals were studied after 5 days of reperfusion (R5d), or after 11 weeks of reperfusion (long-term studies), and then they were euthanized under deep anesthesia. Animals from the sham control group were handled in the same way, but without occlusion of the carotid arteries. Ischemic animals were treated with vehicle solution (ethanol/polyethylene glycol 400/saline, 1:300:200 v/v), or with nitrones QN23 or NXY-059 in vehicle solution, as a single injection through the tail vein at the onset of reperfusion. For the therapeutic window experiments, the animals were also treated at reperfusion times 1, 3, and 6 h after ischemia. The treatments were prepared by an independent researcher and administered with concealed allocation. Treatments were administered in a randomized order obtained by a computer-based randomization program. To determine the sample size, a power analysis (http://www.biomath.info/power/ttest.htm, accessed on 12 March 2020) with significance level set at 0.05 and statistical power set at 0.8 (80%) rendered a sample size of <6 subjects per group. A total of 120 ischemic animals (30 animals treated with vehicle, 60 treated with QN23, and 30 treated with NXY-059) and 9 sham control animals were included in these studies. Additionally, 13 animals were excluded from the study: 6 animals were not ischemic and 7 animals died within the 24 h after the surgical procedure (5 vehicles, 1 QN23-treated at 1.0 mg/kg, and 1 QN23-treated at 2.0 mg/kg). The Animal Care Ethics Committee of the Hospital Universitario Ramón y Cajal (Madrid, Spain) authorized all the procedures involving the animal experimentation reported here (authorization number 04/2020). These experiments were performed according to ARRIVE guidelines and the legislation on the protection of animals used for scientific purposes in Spain (RD 53/2013) and the EU (Directive 2010/63/EU). The study was designed and conducted according to the STAIR guidelines regarding physiological monitoring, sample randomization, predefined exclusion criteria, allocation concealment, blinded assessment of outcomes, dose–response definition, and a conflict-of-interest statement.\nAfter 5 days of reperfusion (R5d), or at 11 weeks of reperfusion in long-term studies, animals were euthanized by transcardiac perfusion via the left ventricle under deep anesthesia. First, blood was washed out with 200 mL of ice-cold saline medium, followed by fixation with 4% (w/v) paraformaldehyde solution in PBS for brain preservation. Then, the brains were carefully removed from the cranial cavity and placed in 4% (w/v) paraformaldehyde solution in PBS overnight at 4 °C. The next day, the brains were sequentially placed in 10%, 20%, and 30% (w/v) sucrose in PBS until sunken, and finally embedded in Tissue-Tek O.C.T. (Sakura Finetek, Torrance, CA, USA) before freezing at −80 °C. Brain coronal sections containing the hippocampus region were obtained by cryostat sectioning at the level of interaural line +5.7 ± 0.2 mm on Real Capillary Gap microscope slides (Agilent Dako, Santa Clara, CA, USA). […]"}, "[4]": {"conditions": "applied at onset of recovery period after OGD"}, "[5]": {"conditions": "cerebral cortex, 2.0 mg/kg i.v. at reperfusion onset, R5d"}},
  "data": [
    {"smiles": "COc1ccc2nc(Cl)c(/C=[N+](\\[O-])C(C)(C)C)cc2c1", "note": "[QN23, (Z)-N-tert-Butyl-1-(2-chloro-6-methoxyquinolin-3-yl)methanimine Oxide]", "values": [
      {"measurement": "Y maze arm entries (exploratory activity)", "setting": "[1]", "value": "higher number of new entries"},
      {"measurement": "Y maze alternations (triads completed), spatial recognition", "setting": "[1]; vehicle 5.0, control 15.75", "value": 7.8},
      {"measurement": "Percentage of animals exploring the novel arm as a first choice (spatial memory)", "setting": "[1]; vehicle 17%, control 75%", "value": 67, "unit": "%"},
      {"measurement": "Most effective concentration for neuroprotection", "setting": "[2]; [4]", "value": 100, "unit": "µM"},
      {"measurement": "Optimal range of concentration for neuroprotection", "setting": "[2]; [4]", "value": "0.3 to 250", "unit": "µM"},
      {"measurement": "ROS and lipid peroxidation levels", "setting": "[2]; primary neuronal cultures subjected to OGD", "value": "decreased"},
      {"measurement": "Therapeutic window: injection time after reperfusion onset with significantly decreased neuronal death", "setting": "[3]; 2.0 mg/kg i.v., CA1 and cortical regions, R5d, times tested 0, 1, 3, 6 h", "value": "up to 3 h"},
      {"measurement": "Neuroprotection (neuronal death, Fluoro-Jade B)", "setting": "[3]; cerebral cortex, 1.5 mg/kg i.v. at reperfusion onset, R5d", "value": 89.2, "unit": "%"},
      {"measurement": "Neuronal death compared with vehicle", "setting": "[3]; [5]", "value": "significantly reduced"},
      {"measurement": "Neuroprotection (neuronal death, Fluoro-Jade B)", "setting": "[3]; [5]", "value": 89.5, "unit": "%"},
      {"measurement": "EC50 of neuroprotection, neuronal death assay", "setting": "[3]; either CA1 or cortical region, i.v., from dose-response curve", "value": 0.3, "unit": "mg/kg"},
      {"measurement": "Neuroprotection (neuronal death, Fluoro-Jade B)", "setting": "[3]; hippocampal CA1, 1.5 mg/kg i.v. at reperfusion onset, R5d", "value": 22.6, "unit": "%"},
      {"measurement": "Neuroprotection (neuronal death, Fluoro-Jade B)", "setting": "[3]; hippocampal CA1, 2.0 mg/kg i.v. at reperfusion onset, R5d", "value": 23.8, "unit": "%"},
      {"measurement": "Neuronal death compared with vehicle", "setting": "[3]; hippocampal CA1, 2.0 or 2.5 mg/kg i.v. at reperfusion onset, R5d", "value": "significantly reduced"}
    ]}
  ]
}
